What was measured:
Assay type in all cases: cell-based
[1] = target: T1, Platelet-derived growth factor receptor beta (Homo sapiens, UniProt P09619); assay: In vitro inhibition of Platelet derived growth factor receptor beta autophosphorylation in MG-63 cells with 45% human plasma
[2] = target: T1, Platelet-derived growth factor receptor beta; assay: In vitro inhibition of Platelet derived growth factor receptor beta autophosphorylation in MG-63 cells without plasma
[3] = Inhibition of PDGFR-beta/Flt-3 chimeric receptor autophosphorylation in CHO cells
[4] = Inhibition of PDGFR-beta/c-Kit chimeric receptor autophosphorylation in CHO cells
[5] = target: T1, Platelet-derived growth factor receptor beta; assay: Inhibition of Platelet derived growth factor receptor beta autophosphorylation in CHO cells

T1 sequence (P09619 whole entry): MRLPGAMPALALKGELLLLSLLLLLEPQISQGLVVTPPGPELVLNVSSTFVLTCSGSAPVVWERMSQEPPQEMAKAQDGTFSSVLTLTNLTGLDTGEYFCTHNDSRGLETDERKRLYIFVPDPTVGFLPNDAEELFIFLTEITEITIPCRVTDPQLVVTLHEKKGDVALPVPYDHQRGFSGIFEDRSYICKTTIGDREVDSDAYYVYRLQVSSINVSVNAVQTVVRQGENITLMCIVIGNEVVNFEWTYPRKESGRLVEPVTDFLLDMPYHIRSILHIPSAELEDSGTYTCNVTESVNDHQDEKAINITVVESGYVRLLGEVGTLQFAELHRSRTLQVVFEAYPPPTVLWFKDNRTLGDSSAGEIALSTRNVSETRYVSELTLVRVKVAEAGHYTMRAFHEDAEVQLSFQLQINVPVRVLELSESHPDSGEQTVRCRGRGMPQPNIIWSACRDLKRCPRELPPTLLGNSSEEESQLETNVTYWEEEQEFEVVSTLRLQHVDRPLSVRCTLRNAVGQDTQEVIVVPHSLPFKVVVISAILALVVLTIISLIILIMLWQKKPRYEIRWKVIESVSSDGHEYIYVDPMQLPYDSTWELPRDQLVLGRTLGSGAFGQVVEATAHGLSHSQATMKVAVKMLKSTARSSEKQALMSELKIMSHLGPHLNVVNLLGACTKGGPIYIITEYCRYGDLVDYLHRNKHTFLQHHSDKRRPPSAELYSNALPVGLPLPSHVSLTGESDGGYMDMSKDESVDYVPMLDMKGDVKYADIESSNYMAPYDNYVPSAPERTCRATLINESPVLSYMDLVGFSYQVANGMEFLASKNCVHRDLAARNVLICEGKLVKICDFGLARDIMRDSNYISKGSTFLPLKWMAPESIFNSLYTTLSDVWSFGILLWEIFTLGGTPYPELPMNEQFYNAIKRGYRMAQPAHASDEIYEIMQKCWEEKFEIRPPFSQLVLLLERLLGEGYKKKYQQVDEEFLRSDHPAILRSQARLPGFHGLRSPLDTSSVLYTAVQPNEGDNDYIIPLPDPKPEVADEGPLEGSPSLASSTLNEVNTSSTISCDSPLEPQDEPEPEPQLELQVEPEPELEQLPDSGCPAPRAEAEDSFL

Compound | IC50 [1] [nM] | IC50 [2] [nM] | IC50 [3] [nM] | IC50 [4] [nM] | IC50 [5] [nM]
COc1cc2c(N3CCN(C(=S)NCc4csc(C)n4)CC3)ncnc2cc1OCCCN1CCCCC1 | 450 | 630 | – | – | –
COc1cc2c(N3CCN(C(=S)NCc4cnc(C)cn4)CC3)ncnc2cc1OCCN1CCOCC1 | 230 | 1360 | – | – | –
COc1cc2c(N3CCN(/C(S)=N\Cc4ccc(-c5ccccc5)nc4)CC3)ncnc2cc1OCCCN1CCCCC1 | 130 | 20 | – | – | –
COc1cc2c(N3CCN(/C(S)=N\c4ccc(-c5cccc[n+]5[O-])cc4)CC3)ncnc2cc1OCCN1CCCCC1 | 430 | 800 | – | – | –
COc1cc2c(N3CCN(/C(S)=N\Cc4cccnc4)CC3)ncnc2cc1OCCN1CCCCC1 | 710 | 2110 | – | – | –
COc1cc2c(N3CCN(C(=S)NCc4ccc(Cl)nc4)CC3)ncnc2cc1OCCN1CCCCC1 | 80 | 1010 | > 30000 | 70 | 50
COc1cc2c(N3CCN(/C(=N\Cc4cc(C)on4)NC#N)CC3)ncnc2cc1OCCCN1CCCCC1 | 2370 | 10500 | – | – | –
COc1cc2c(N3CCN(C(=S)Nc4ccc(-c5ccccc5)nc4)CC3)ncnc2cc1OCCCN1CCCCC1 | 270 | 360 | 5550 | 190 | 100
COc1cc2c(N3CCN(/C(S)=N\c4ccc(C#N)cc4)CC3)c(C#N)cnc2cc1OCCCN1CCCCC1 | 120 | 5 | – | – | –
COc1cc2c(N3CCN(/C(S)=N\c4nccs4)CC3)ncnc2cc1OCCN1CCCCC1 | 5040 | 2000 | – | – | –
COc1cc2c(N3CCN(/C(=N\Cc4ccc5c(c4)OCO5)NC#N)CC3)ncnc2cc1OCCCN1CCCCC1 | 590 | 320 | – | – | –
COc1cc2c(N3CCN(/C(S)=N\c4ccnc(C#N)c4)CC3)ncnc2cc1OCCN1CCCCC1 | 1790 | 1540 | – | – | –
COc1cc2c(N3CCN(/C(S)=N\c4ccc(-c5ccccn5)cc4)CC3)c(C#N)cnc2cc1OCCCN1CCCCC1 | 130 | 220 | – | – | –
COc1cc2c(N3CCN(/C(S)=N\c4ccc(Br)cc4)CC3)ncnc2cc1OCCN1CCOCC1 | 540 | 180 | – | – | –
COc1cc2c(N3CCN(C(=S)NCc4ccc(N)nc4)CC3)ncnc2cc1OCCN1CCCCC1 | 2930 | 5810 | – | – | –
COc1cc2c(N3CCN(/C(S)=N\c4ccc(Br)cc4)CC3)ncnc2cc1OCCN1CCCCC1 | 390 | 1010 | – | – | –
COc1cc2c(N3CCN(/C(S)=N\Cc4ccc5c(c4)OCO5)CC3)ncnc2cc1OCCN1CCOCC1 | 260 | 100 | – | – | –
COc1cc2c(N3CCN(/C(S)=N\Cc4ccc(C(F)(F)F)nc4)CC3)ncnc2cc1OCCCN1CCOCC1 | 50 | 5 | – | – | –
COc1cc2c(N3CCN(C(=S)NCc4ccc(C(F)(F)F)nc4)CC3)ncnc2cc1OCCCN1CCCCC1 | 60 | 30 | – | – | –
COc1cc2c(N3CCN(C(=S)NCc4csc(-c5ccc(C(F)(F)F)cc5)n4)CC3)ncnc2cc1OCCCN1CCCCC1 | 4470 | 3090 | – | – | –
COc1cc2c(N3CCN(/C(S)=N\c4ccc(-c5ccccc5)nc4)CC3)c(C#N)cnc2cc1OCCCN1CCCCC1 | 280 | 150 | – | – | –
COc1cc2c(N3CCN(C(=S)NCc4ccncc4)CC3)ncnc2cc1OCCN1CCCCC1 | 3590 | 12100 | – | – | –
COc1cc2c(N3CCN(/C(S)=N\Cc4ccccn4)CC3)ncnc2cc1OCCN1CCCCC1 | – | 4090 | – | – | –
COc1cc2c(N3CCN(C(=S)Nc4ccc(-c5ccccc5)cn4)CC3)ncnc2cc1OCCCN1CCCCC1 | 550 | 1980 | – | – | –
COc1cc2c(N3CCN(C(=NC#N)Nc4ccc(C(C)(C)C)cc4)CC3)ncnc2cc1OCCCN1CCCCC1 | 1550 | 800 | – | – | –
COc1cc2c(N3CCN(/C(S)=N\Cc4ccc(C(F)(F)F)nc4)CC3)c(C#N)cnc2cc1OCCCN1CCCCC1 | 10 | 3 | 40 | 20 | 10
COc1cc2c(N3CCN(C(=S)Nc4ccc(Br)cc4)CC3)ncnc2cc1OCCN1CCCC1 | 470 | 350 | – | – | –
COc1cc2c(N3CCN(C(=S)NCc4ccc(Cl)nc4)CC3)ncnc2cc1OCCCN1CCCCC1 | 60 | 20 | – | – | –
COc1cc2c(N3CCN(/C(S)=N\c4ccncc4)CC3)ncnc2cc1OCCN1CCCCC1 | 400 | 240 | > 30000 | 2970 | 980
